According to patent US20060134063A1, “Agents for proliferating pancreatic beta-cells of the islets of langerhans, agents for suppressing apoptosis of said cells, and screening of candidate compounds for these agents” (priority 2000, published 2006):

Legend:
Reg gene = test: RT-PCR of Reg gene expression in RINm5F cells; type: cell-based, rat; details: 24 h with stimulants
Experimental: The Reg gene expression was analyzed by RT-PCR. The cells were harvested after 24 h of culturing in a medium supplemented with stimulants, and total RNA was prepared using cesium trifluoroacetate as described in Takasawa, S. et al. (1993) J. Biol. Chem., 268, 26052-26054. RT-PCR was performed using primers corresponding to nucleotides 23 to 43 and 572 to 593 of rat Reg mRNA (Terazono, K. et al. (1988) J. Biol. Chem., 263, 2111-2114).

[1] = system: 5'-flanking region of the rat Reg gene; test: Reg promoter/luciferase reporter assay in RINm5F cells; type: cell-based; details: 2,303-bp Reg 5'-flanking fragment; 24 h stimulation
Experimental: A 2,303-bp fragment containing the 5′-flanking region of Reg gene was fused to the luciferase gene and transfected into RINm5F β-cells.
Specifically, luciferase reporter gene constructs were generated as described in Miyashita, H. et al. (1994) Biochim. Biophys. Acta, 1219, 241-243. RINm5F cells were seeded at 1×10^5 cells/well in 24-well dish. After 48 h, 3.0 μg of test plasmid and 0.2 μg of pCMV-SPORT β-gal (Life Technologies, Inc.) were transfected by lipofection (Felgner, J. H. et al. (1994) J. Biol. Chem., 269, 2550-2561) using DMRIE-C™ (Life Technologies, Inc.). After 24 h, the medium of each dish was replaced with fresh medium containing stimulants and incubated further for 24 h. Cells were harvested in 1 ml of ice-cold phosphate-buffered saline (PBS), washed twice with PBS, and extracts were prepared in extraction buffer (0.1 M potassium phosphate, pH 6.8, 1 mM DTT). The protein concentration was determined using a Coomassie reagent kit (Pierce) and bovine serum albumin as a standard. Luciferase activity was determined by a chemiluminescence substrate using a Pica Gene™ Luminescence Kit (Toyo Ink Mfg. Co, Ltd., Tokyo, Japan). β-galactosidase activity was determined using Aurora™ GAL-XE (ICN).

[2] = biological target: T1, poly(ADP-ribose) synthetase/polymerase (PARP) (Rattus norvegicus, UniProt P27008); test: GMSA binding reaction of RINm5F nuclear extracts, effects of ADP-ribosylation; type: biochemical; details: for intensity of the IL-6/dexamethasone/nicotinamide-dependent GMSA band: added to the binding reaction prior to the 32P-probe
T1 construct: Nuclear extracts from RINm5F cells were prepared as described; endogenous in cells; host or cells: RINm5F (rat insulinoma) nuclear extract
Experimental: The nuclear extract (10 μg) was incubated in a final volume of 20 μl of buffer containing 20 mM Tris-HCl (pH 7.9), 2 mM MgCl2, 50 mM NaCl, 2 mM EDTA, 10% glycerol, 0.1% Nonidet P-40, 1 mM DTT, 50 μg/ml bovine serum albumin and 1 μg of poly(dI-dC). After incubation for 10 min at room temperature, 2.5 pmol of double-stranded DNA, previously labeled by an exchange reaction using MEGALABEL (Takara Shuzo) and [γ-^32P]ATP (Amersham Pharmacia Biotech), were added and incubated for 30 min at room temperature, then the binding reactions were resolved on pre-run 6% acrylamide gel. […] After electrophoresis, DNA/proteins were electrophoretically transferred to a PolyScreen™ PVDF membrane (NEN).
Poly(ADP-ribosyl)ation of nuclear proteins was performed in the same condition as GMSA in the presence of 62 nM [adenylate-^32P]NAD^+ (2×10^6 cpm, NEN). The ADP-ribosylated proteins were precipitated by the addition of 9 volume of acetone, separated by SDS-PAGE (12.5%) and autoradiographed.

90% depancreatized rats = details: cited from earlier work
Reg protein = test: Immunoblot of secreted Reg protein in RINm5F culture medium; type: cell-based, rat; details: 24 h incubation with stimulants
Experimental: The Reg protein levels in the RINm5F cultured media were examined after stimulation. After 24-hour incubation of the cells in a medium supplemented with stimulants, the medium was collected, and subjected to immunoblot analyses as described in Watanabe, T. et al. (1990) J. Biol. Chem., 265, 7432-7439. The medium of RINm5F cells was subjected to SDS polyacrylamide gel electrophoresis (SDS-PAGE) and electrotransferred to a PVDF membrane as described in Takasawa, S. et al. (1993) J. Biol. Chem., 268, 26052-26054. Western blotting was carried out using an anti-rat Reg monoclonal antibody (Terazono, K. et al. (1990) Diabetologia, 33, 250-252).

[3] = system: RINm5F cell lines, #1, #6, and #24, which stably express the Reg protein receptor; test: TUNEL apoptosis assay in RINm5F cell lines #1, #6, #24 expressing Reg protein receptor; type: cell-based, rat; details: HGF 0, 2.5, 25 ng/ml; 24 h; every cell line
Experimental: Rat insulinoma RINm5F cell lines, #1, #6, and #24, which stably express Reg protein receptor (Kobayashi, S. et al. (2000) J. Biol. Chem. 275, 10723-10726) were similarly cultured as in Example 4 and 1,000 nM Reg protein and HGF at varied concentrations, 0, 2.5, and 25 ng/ml were added thereto. Twenty-four hours after the addition of Reg protein/HGF, apoptosis was measured by TUNEL method using an Apoptosis Screening kit (Wako Pure Chemical Industries Ltd., Osaka, Japan) as described in Kobayashi, S. et al. (2000) J. Biol. Chem. 275, 10723-10726.

[4] = system: RINm5F cell lines, #1, #6, and #24, which stably express the Reg protein receptor; details: 1,000 nM Reg protein added to culture media; cited from earlier work
[5] = system: non-obese diabetic (NOD) mice; details: cited from earlier work

T1 sequence (P27008 whole entry): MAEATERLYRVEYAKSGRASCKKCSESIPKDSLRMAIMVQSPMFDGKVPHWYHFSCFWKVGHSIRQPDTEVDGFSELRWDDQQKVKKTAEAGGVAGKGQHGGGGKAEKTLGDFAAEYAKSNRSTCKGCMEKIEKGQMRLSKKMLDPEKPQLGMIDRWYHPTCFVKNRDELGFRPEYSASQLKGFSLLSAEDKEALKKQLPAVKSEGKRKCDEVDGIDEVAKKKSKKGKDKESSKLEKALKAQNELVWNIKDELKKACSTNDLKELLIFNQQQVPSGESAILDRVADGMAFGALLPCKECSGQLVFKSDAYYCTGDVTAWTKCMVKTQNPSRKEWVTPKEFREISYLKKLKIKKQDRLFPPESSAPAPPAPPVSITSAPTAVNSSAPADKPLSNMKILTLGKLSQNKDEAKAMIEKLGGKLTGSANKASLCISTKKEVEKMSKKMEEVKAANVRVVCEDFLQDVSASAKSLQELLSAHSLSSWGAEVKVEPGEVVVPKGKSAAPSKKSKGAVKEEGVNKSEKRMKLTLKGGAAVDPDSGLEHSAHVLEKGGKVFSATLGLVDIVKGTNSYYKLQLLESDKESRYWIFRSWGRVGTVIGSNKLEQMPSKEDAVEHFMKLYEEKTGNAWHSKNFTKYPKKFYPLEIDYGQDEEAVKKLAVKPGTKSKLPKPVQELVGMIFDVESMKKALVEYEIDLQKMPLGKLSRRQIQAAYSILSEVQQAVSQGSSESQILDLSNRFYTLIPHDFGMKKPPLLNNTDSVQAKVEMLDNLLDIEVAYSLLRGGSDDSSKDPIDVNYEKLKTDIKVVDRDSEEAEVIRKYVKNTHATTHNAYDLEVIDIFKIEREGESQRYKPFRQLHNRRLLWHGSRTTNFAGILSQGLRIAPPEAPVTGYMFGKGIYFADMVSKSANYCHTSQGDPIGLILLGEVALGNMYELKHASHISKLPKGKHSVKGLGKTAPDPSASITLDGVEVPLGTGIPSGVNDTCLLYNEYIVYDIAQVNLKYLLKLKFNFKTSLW

In the case of `NC(=O)c1cccc(N)c1` [3-aminobenzamide], the “Reg gene expression (Reg mRNA)” value (Reg gene) is reported as “no effect on Reg expression”, the “luciferase activity (result in words)” value [1] is reported as “ineffective” and the IC50 ([2]; 1 mM β-NAD+ in the GMSA binding reaction, read-out: concentrations of half maximal inhibition (quenching of the effect of β-NAD+ on the GMSA band)) is reported as 30 µM. The “development of diabetes after 90% pancreatectomy” value (90% depancreatized rats; PARP inhibitor-treated rats) was “preventing the development of diabetes”.

With IL-1β: IL-1β (Sigma), stimulant the “Reg gene expression (Reg mRNA)” value (Reg gene) was “no effect on Reg expression”.

With `N=c1c2ncn3c2ncn1[C@@H]1O[C@H](COP(=O)(O)OP(=O)(O)OC[C@H]2O[C@@H]3[C@H](O)[C@@H]2O)[C@@H](O)[C@H]1O` [cyclic ADP-ribose] the “intensity of the IL-6/dexamethasone/nicotinamide-dependent GMSA band” value [2] was “did not attenuate the band intensity”.

With “IL-6: interleukin (IL)-6, a cytokine whose receptor is gp130 (Genzyme)” the “Reg protein secretion into the medium” value (Reg protein) was “did not induce Reg protein secretion”, the “Reg gene expression (Reg mRNA)” value (Reg gene) was “no effect on Reg expression” and the “luciferase activity (result in words)” value [1] was “ineffective”.

For `NC(=O)c1ccc[n+]([C@@H]2O[C@H](COP(=O)([O-])OP(=O)(O)OC[C@H]3O[C@@H](n4cnc5c(N)ncnc54)[C@H](O)[C@@H]3O)[C@@H](O)[C@H]2O)c1` [β-NAD^+], the “intensity of the IL-6/dexamethasone/nicotinamide-dependent GMSA band” value [2] was “attenuated”.

With `NC(=O)c1ccc[n+]([C@H]2O[C@H](COP(=O)(O)OP(=O)(O)OC[C@H]3O[C@@H](n4cnc5c(N)ncnc54)[C@H](O)[C@@H]3O)[C@@H](O)[C@H]2O)c1` [α-NAD^+] the “intensity of the IL-6/dexamethasone/nicotinamide-dependent GMSA band” value [2] was “not”.

In the case of TNFα, the “Reg gene expression (Reg mRNA)” value (Reg gene) is reported as “no effect on Reg expression”.

In the case of “HGF: hepatocyte growth factor (HGF; Sigma)”, the “apoptosis induced by 1,000 nM Reg protein (TUNEL)” value [3] is reported as “concentration-dependently inhibited apoptosis”.

In the case of `Nc1ncnc2c1ncn2[C@@H]1O[C@H](COP(=O)(O)OP(=O)(O)OC[C@H]2OC(O)[C@H](O)[C@@H]2O)[C@@H](O)[C@H]1O` (some centres unmarked) [ADP-ribose], the “intensity of the IL-6/dexamethasone/nicotinamide-dependent GMSA band” value [2] is reported as “did not attenuate the band intensity”.

B1: Recombinant rat Reg protein: recombinant rat Reg protein, 165-amino acid protein with a 21-amino acid signal peptide (protein, UniProt P10758 1-165, looked up)
chain: MTRNKYFILLSCLMVLSPSQGQEAEEDLPSARITCPEGSNAYSSYCYYFMEDHLSWAEADLFCQNMNSGYLVSVLSQAEGNFLASLIKESGTTAANVWIGLHDPKNNRRWHWSSGSLFLYKSWDTGYPNNSNRGYCVSVTSNSGYKKWRDNSCDAQLSFVCKFKA
modifications: full-length
notes: recombinant rat Reg protein, 165-amino acid protein with a 21-amino acid signal peptide
For B1, the “β-cell replication and β-cell mass in the residual pancreas” value (90% depancreatized rats; 90% depancreatized rats) is listed as “stimulated β-cell replication and increased the β-cell mass”.

B2: Reg protein: product of Reg (regenerating gene), stimulates β-cell proliferation (protein)
chain: QEAEEDLPSARITCPEGSNAYSSYCYYFMEDHLSWAEADLFCQNMNSGYLVSVLSQAEGNFLASLIKESGTTAANVWIGLHDPKNNRRWHWSSGSLFLYKSWDTGYPNNSNRGYCVSVTSNSGYKKWRDNSCDAQLSFVCKFKA
For B2, the “proliferation and apoptosis of the cells” value [4] is given as “induced not only proliferation but also apoptosis”.

B3: Human REG protein: human REG protein, 166-amino acid protein with 68% identity to rat Reg protein (protein, UniProt P05451 1-166, looked up)
chain: MAQTSSYFMLISCLMFLSQSQGQEAQTELPQARISCPEGTNAYRSYCYYFNEDRETWVDADLYCQNMNSGNLVSVLTQAEGAFVASLIKESGTDDFNVWIGLHDPKKNRRWHWSSGSLVSYKSWGIGAPSSVNPGYCVSLTSSTGFQKWKDVPCEDKFSFVCKFKN
modifications: full-length
notes: human REG protein, 166-amino acid protein with 68% identity to rat Reg protein
For B3, the β-cell mass [5] is given as “induced an expansion of the β-cell mass”.
